{"source": "patent US11766404B2", "about": "“Bioavailable dithiocarbamate-metal complex particles, method of preparation and use thereof” (priority 2018, dated 2023)", "key": {"[1]": {"system": "MDA-MB-231 breast cancer tumours subcutaneously xenografted into the SCID mice", "assay": "Growth of MDA-MB-231 tumours xenografted into SCID mice", "type": "in vivo", "details": "CuET 1 mg/kg i.p., 5 days ON and 2 days OFF", "experimental": "To test directly effect of CuET-albumin nanoparticles we used MDA-MB-231 and AMO1 models. MDA-MB-231 was injected (5*10^6 cells were transplanted s.c.) to grow tumours in SCID mice (Anlab, CZ). Similarly, the AMO-1 xenografts were expanded in SCID mice. Each group consisted of 10 animals, each bearing two tumours. CuET was formulated as nanoparticulate system in mouse serum albumin according to Example 12 or as the neat CuET powder (obtained from TOKYO CHEMICAL […] CO., LTD.) dissolved in olive oil which is a standard formulation for non-polar compounds applied intraperitoneally in the mice experiments to final concentration 1 mg/ml. Olive oil alone and mouse serum albumin solutions were used as the vehicle controls. All solutions were applied intraperitoneally in a schedule 5 days ON and 2 days OFF, the CuET was applied in the final dose 1 mg per kg of body weight. All aspects of the animal studies met the accepted criteria for the care and experimental use of laboratory animals."}, "[2]": {"details": "cited from earlier work"}}}
{"compound": "CCN(CC)C(=S)[S-].CCN(CC)C(=S)[S-].[Cu+2]", "note": "[neat CuET powder, bis(diethyldithiocarbamate)copper(II)]", "values": [{"measurement": "effect on tumour growth", "setting": "[1]", "value": "Only the CuET-albumin nanoparticle shows significant effect"}, {"measurement": "solubility constant in water", "setting": "[2]", "value": "in the range of nanograms per litre"}]}
